Measured values reported in PubChem BioAssay AID330 (DTP/NCI, 2004).
Values joined by “and” are separate entries in the source; they are usually repeats but may differ in a detail not shown here. Equal values may be shown once. Inconclusive results and toxic doses are left out.

Test system: P388 leukemia ip, CD2F1 mice, survival T/C
Assay: NCI In Vivo Anticancer Drug Screen. Data for tumor model P388 Leukemia (intraperitoneal) in CD2F1 (CDF1) mice
Settings: endpoint: median survival time, higher = longer survival
In short: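 Mice carrying the transplanted tumor received test compound or vehicle. Survival was recorded in each group, and the value is the treated-group measurement divided by that of the vehicle-treated control group.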

[1] = dose: 25.0 mg/kg/injection, schedule: Q01DX005 (ip), vehicle: saline with Tween-80
[2] = dose: 50.0 mg/kg/injection, schedule: Q01DX005 (ip), vehicle: Klucel (hydroxypropylcellulose) (HPC)
[3] = dose: 100.0 mg/kg/injection, schedule: Q01DX005 (ip), vehicle: Klucel (hydroxypropylcellulose) (HPC)
[4] = dose: 50.0 mg/kg/injection, schedule: Q01DX009 (ip), vehicle: Klucel (hydroxypropylcellulose) (HPC)
[5] = dose: 100.0 mg/kg/injection, schedule: Q01DX009 (ip), vehicle: Klucel (hydroxypropylcellulose) (HPC)
[6] = dose: 200.0 mg/kg/injection, schedule: Q01DX009 (ip), vehicle: Klucel (hydroxypropylcellulose) (HPC)
[7] = dose: 25.0 mg/kg/injection, schedule: Q01DX009 (ip), vehicle: Klucel (hydroxypropylcellulose) (HPC)
[8] = dose: 100.0 mg/kg/injection, schedule: Q01DX009 (ip), vehicle: saline with Tween-80
[9] = dose: 100.0 mg/kg/injection, schedule: Q04DX003 (ip), vehicle: saline with Tween-80
[10] = dose: 200.0 mg/kg/injection, schedule: Q04DX003 (ip), vehicle: saline with Tween-80
[11] = dose: 12.5 mg/kg/injection, schedule: Q01DX009 (ip), vehicle: saline
[12] = dose: 100.0 mg/kg/injection, schedule: Q01DX001 (ip), vehicle: Klucel (hydroxypropylcellulose) (HPC)
[13] = dose: 200.0 mg/kg/injection, schedule: Q01DX001 (ip), vehicle: Klucel (hydroxypropylcellulose) (HPC)
[14] = dose: 400.0 mg/kg/injection, schedule: Q01DX001 (ip), vehicle: Klucel (hydroxypropylcellulose) (HPC)
[15] = dose: 50.0 mg/kg/injection, schedule: Q01DX005 (ip), vehicle: saline
[16] = dose: 100.0 mg/kg/injection, schedule: Q01DX005 (ip), vehicle: saline
[17] = dose: 200.0 mg/kg/injection, schedule: Q01DX005 (ip), vehicle: saline
[18] = dose: 50.0 mg/kg/injection, schedule: Q01DX005 (ip), vehicle: saline with Tween-80
[19] = dose: 100.0 mg/kg/injection, schedule: Q01DX005 (ip), vehicle: saline with Tween-80
[20] = dose: 200.0 mg/kg/injection, schedule: Q01DX005 (ip), vehicle: saline with Tween-80

CCOC(=O)Nc1cc2c(c(N)n1)N=C(c1ccc(Cl)cc1Cl)CN2
T/C (dose: 12.5 mg/kg/injection, schedule: Q01DX005 (ip), vehicle: saline with Tween-80): 157 % of control
T/C [1]: 90 % of control

CC(C)c1ccc2c(c1)CCC1C(C)(CN)CCCC21C (stereo unspecified)
T/C [2]: 97 % of control
T/C [3]: 99 % of control

O=C(O)c1ncn2c(=O)n(CCCl)nnc12
T/C (dose: 60.0 mg/kg/injection, schedule: Q01DX005 (ip), vehicle: Klucel (hydroxypropylcellulose) (HPC)): 118 % of control

O=C(Nc1ccccc1-c1ccccc1)C(Cl)Cl
T/C [4]: 101 % of control
T/C [5]: 104 % of control
T/C [6]: 87 % of control
T/C (dose: 400.0 mg/kg/injection, schedule: Q01DX009 (ip), vehicle: Klucel (hydroxypropylcellulose) (HPC)): 100 % of control

CC1CCC(C(C)C)C(OC(=O)c2cccc[n+]2C)C1 (stereo unspecified)
T/C (dose: 3.75 mg/kg/injection, schedule: Q01DX005 (ip), vehicle: saline): 107 % of control
T/C (dose: 7.5 mg/kg/injection, schedule: Q01DX005 (ip), vehicle: saline): 103 % of control
T/C (dose: 15.0 mg/kg/injection, schedule: Q01DX005 (ip), vehicle: saline): 110 % of control
T/C (dose: 30.0 mg/kg/injection, schedule: Q01DX005 (ip), vehicle: saline): 104 % of control and 119 % of control

Cc1cc(C)c(CC(=O)O)c(C)c1
T/C [7]: 111 % of control
T/C [4]: 106 % of control
T/C [5]: 105 % of control
T/C [6]: 107 % of control

COc1cc2c(cc1C1CCCCCc3c1n(C)c1ccccc31)C1CCCCC1N2C (stereo unspecified)
T/C (dose: 12.5 mg/kg/injection, schedule: Q01DX001 (ip), vehicle: distilled water + Tween-80): 108 % of control
T/C (dose: 25.0 mg/kg/injection, schedule: Q01DX001 (ip), vehicle: distilled water + Tween-80): 116 % of control
T/C (dose: 50.0 mg/kg/injection, schedule: Q01DX001 (ip), vehicle: distilled water + Tween-80): 101 % of control
T/C (dose: 100.0 mg/kg/injection, schedule: Q01DX001 (ip), vehicle: distilled water + Tween-80): 111 % of control
T/C (dose: 200.0 mg/kg/injection, schedule: Q01DX001 (ip), vehicle: distilled water + Tween-80): 111 % of control

Cc1ccc(N=CN(C)Sc2ccc(C(C)(C)C)cc2)c(C)c1
T/C [4]: 103 % of control
T/C [5]: 117 % of control

COc1ccc(CCN2COc3ccc4ccc(=O)oc4c3C2)cc1OC
T/C [8]: 100 % of control
T/C [9]: 110 % of control
T/C [10]: 115 % of control
T/C (dose: 400.0 mg/kg/injection, schedule: Q01DX009 (ip), vehicle: saline with Tween-80): 100 % of control
T/C (dose: 400.0 mg/kg/injection, schedule: Q04DX003 (ip), vehicle: saline with Tween-80): 110 % of control

CNC(=O)OCc1cc(C)cc(C)c1-c1ccco1
T/C (dose: 50.0 mg/kg/injection, schedule: Q01DX009 (ip), vehicle: saline with Tween-80): 101 % of control
T/C [8]: 98 % of control
T/C (dose: 200.0 mg/kg/injection, schedule: Q01DX009 (ip), vehicle: saline with Tween-80): 95 % of control

O=Cc1c(-c2ccccc2)sc2ccccc2c1=O
T/C (dose: 100.0 mg/kg/injection, schedule: Q04DX002 (ip), vehicle: saline with Tween-80): 113 % of control
T/C (dose: 200.0 mg/kg/injection, schedule: Q04DX002 (ip), vehicle: saline with Tween-80): 98 % of control
T/C (dose: 400.0 mg/kg/injection, schedule: Q04DX002 (ip), vehicle: saline with Tween-80): 109 % of control

C[N+](C)=C1C=CC(=C2C=CSC=C2)C=C1
T/C [11]: 108 % of control and 112 % of control

CC(C)NCCCNC(=S)C(=S)NCCCNC(C)C
T/C [2]: 100 % of control
T/C [3]: 94 % of control

O=c1cc(-c2ccc(OCc3ccccc3)cc2)oc2c(-c3c(OCc4ccccc4)cc(OCc4ccccc4)c4c(=O)cc(-c5ccc(OCc6ccccc6)cc5)oc34)c(OCc3ccccc3)cc(OCc3ccccc3)c12
T/C [12]: 95 % of control
T/C [13]: 92 % of control
T/C [14]: 103 % of control

O=C(NC(Cc1ccc(Br)cc1)C(=O)O)c1cccc(Br)c1 (stereo unspecified)
T/C [2]: 91 % of control
T/C [3]: 102 % of control
T/C (dose: 200.0 mg/kg/injection, schedule: Q01DX005 (ip), vehicle: Klucel (hydroxypropylcellulose) (HPC)): 104 % of control

O=C(c1ccc(Cl)cc1)c1cc2c(ccc3ccccc32)oc1=O
T/C (dose: 6.25 mg/kg/injection, schedule: Q01DX009 (ip), vehicle: saline): 91 % of control
T/C [11]: 95 % of control
T/C (dose: 25.0 mg/kg/injection, schedule: Q01DX009 (ip), vehicle: saline): 104 % of control

S=C(S)NN1CCOCC1
T/C (dose: 100.0 mg/kg/injection, schedule: Q01DX009 (ip), vehicle: saline): 88 % of control
T/C (dose: 200.0 mg/kg/injection, schedule: Q01DX009 (ip), vehicle: saline): 110 % of control
T/C (dose: 400.0 mg/kg/injection, schedule: Q01DX009 (ip), vehicle: saline): 106 % of control

NC(=O)c1ccnn1C1OC(CO)C(O)C1O (stereo unspecified)
T/C (dose: 32.0 mg/kg/injection, schedule: Q01DX002 (ip), vehicle: saline): 107 % of control and 116 % of control
T/C (dose: 64.0 mg/kg/injection, schedule: Q01DX002 (ip), vehicle: saline): 104 % of control and 112 % of control
T/C (dose: 128.0 mg/kg/injection, schedule: Q01DX002 (ip), vehicle: saline): 107 % of control

N=c1nc2ccc3ccccc3c2nn1-c1ccc([N+](=O)[O-])cc1
T/C (dose: 1.5 mg/kg/injection, schedule: Q01DX009 (ip), vehicle: Klucel (hydroxypropylcellulose) (HPC)): 108 % of control
T/C (dose: 3.0 mg/kg/injection, schedule: Q01DX009 (ip), vehicle: Klucel (hydroxypropylcellulose) (HPC)): 106 % of control
T/C (dose: 6.0 mg/kg/injection, schedule: Q01DX009 (ip), vehicle: Klucel (hydroxypropylcellulose) (HPC)): 108 % of control
T/C (dose: 12.5 mg/kg/injection, schedule: Q01DX009 (ip), vehicle: Klucel (hydroxypropylcellulose) (HPC)): 103 % of control
T/C [7]: 108 % of control
T/C [4]: 119 % of control

O=[N+]([O-])c1ccc(Sc2ccc([N+](=O)[O-])cc2)cc1
T/C (dose: 50.0 mg/kg/injection, schedule: Q04DX003 (ip), vehicle: saline with Tween-80): 90 % of control
T/C (dose: 66.0 mg/kg/injection, schedule: Q04DX003 (ip), vehicle: saline with Tween-80): 90 % of control
T/C [9]: 100 % of control and 95 % of control
T/C (dose: 150.0 mg/kg/injection, schedule: Q04DX003 (ip), vehicle: saline with Tween-80): 90 % of control
T/C [10]: 90 % of control

O=C1CCC2CCC1N2 (stereo unspecified)
T/C [15]: 100 % of control
T/C [16]: 100 % of control
T/C [17]: 100 % of control

CCOC(=O)c1ccccc1N
T/C [1]: 100 % of control
T/C [18]: 105 % of control
T/C [19]: 99 % of control
T/C [20]: 100 % of control

CCOC(=O)C1(C(=O)O)CCCN(C(=O)OCc2ccccc2)C1Cc1ccccc1 (stereo unspecified)
T/C [12]: 99 % of control
T/C [13]: 102 % of control
T/C [14]: 93 % of control

COC1=C(c2c[nH]c3ccc(CC=C(C)C)cc23)C(=O)C(OC)=C(c2c[nH]c3ccc(CC=C(C)C)cc23)C1=O
T/C [18]: 89 % of control
T/C [19]: 89 % of control
T/C [20]: 94 % of control

CCCCCCCC(=O)Nc1cc2c3c(c1)CCCN3CCC2
T/C (dose: 50.0 mg/kg/injection, schedule: Q01DX001 (ip), vehicle: saline with Tween-80): 100 % of control
T/C (dose: 100.0 mg/kg/injection, schedule: Q01DX001 (ip), vehicle: saline with Tween-80): 95 % of control
T/C (dose: 200.0 mg/kg/injection, schedule: Q01DX001 (ip), vehicle: saline with Tween-80): 90 % of control

CCCCCCCCC1OCN2CC(CC)CCC12 (stereo unspecified)
T/C [15]: 107 % of control
T/C [16]: 108 % of control
T/C [17]: 108 % of control

O=C(OCC(Cl)(Cl)Cl)N1C2C3OC3C(C3OC32)N1C(=O)OCC(Cl)(Cl)Cl (stereo unspecified)
T/C (dose: 50.0 mg/kg/injection, schedule: Q01DX009 (ip), vehicle: suspension in saline): 99 % of control
T/C (dose: 100.0 mg/kg/injection, schedule: Q01DX009 (ip), vehicle: suspension in saline): 92 % of control
T/C (dose: 200.0 mg/kg/injection, schedule: Q01DX009 (ip), vehicle: suspension in saline): 94 % of control
